Experimental data reported in PubChem BioAssay (NCI).
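Protocol summary: plate cells (96-well), add compound at 5 concentrations, incubate 48 h, interpolate endpoints linearly. GI50 is the concentration that inhibits growth by half. TGI is the concentration that stops growth completely.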

How the values were obtained:
Experiment in all cases: DTP human tumour cell line panel, 48 h
[1] = system: LOX IMVI melanoma
[2] = system: UACC-62 melanoma
[3] = system: OVCAR-5 ovarian
[4] = system: UACC-257 melanoma
[5] = system: M14 melanoma
[6] = system: SNB-75 CNS
[7] = system: SW-620 colon
[8] = system: K-562 leukemia
[9] = system: RXF 393 renal
[10] = system: DU-145 prostate

| Compound | GI50 [1] | TGI [1] | GI50 [2] | TGI [2] | GI50 [3] | TGI [3] | GI50 [4] | TGI [4] | GI50 [5] | TGI [5] | GI50 [6] | TGI [6] | GI50 [7] | TGI [7] | GI50 [8] | TGI [8] | GI50 [9] | TGI [9] | GI50 [10] | TGI [10] |
| --- | --- | --- | --- | --- | --- | --- | --- | --- | --- | --- | --- | --- | --- | --- | --- | --- | --- | --- | --- | --- |
| c1ccc(-n2nnnc2-c2cccc3ccccc23)cc1 | 0.498 µM | 24.8 µM | 0.666 µM | > 100 µM | 3.27 µM | > 100 µM | 27.8 µM | > 100 µM | 0.365 µM | 8.81 µM | 1.55 µM | > 27.7 µM | 0.453 µM | > 100 µM | 0.377 µM | > 100 µM | 1.01 µM | > 20.1 µM | 0.92 µM | 6.86 µM |
| Cc1c(C)[n+](=O)c(C)c(C)n1[O-] | > 100 µM | > 100 µM | > 100 µM | > 100 µM | > 100 µM | > 100 µM | > 100 µM | > 100 µM | > 100 µM | > 100 µM | 79.8 µM | > 100 µM | > 100 µM | > 100 µM | > 100 µM | > 100 µM | > 100 µM | > 100 µM | > 100 µM | > 100 µM |
| COc1ccc(C(=O)c2cc3c(OC)c(OC)c(OC)cc3[nH]2)cc1 | 4.91 µM | > 100 µM | 3.39 µM | > 100 µM | 66.9 µM | > 100 µM | > 100 µM | > 100 µM | 3.69 µM | > 100 µM | 6.84 µM | 28.5 µM | 5.87 µM | > 100 µM | 1.1 µM | > 100 µM | 10.2 µM | 95.7 µM | > 100 µM | > 100 µM |
| CO[C@@H]1CC(=O)C2(CC(=O)O[C@@H]2/C=C(\C)CCC=C(C)C)C[C@@H]1O (stereo not given in full) | 0.634 µM | 1.57 µM | 0.812 µM | 1.71 µM | 0.769 µM | 1.96 µM | 0.883 µM | 2.52 µM | 0.709 µM | 1.55 µM | 1.2 µM | 3.66 µM | 0.754 µM | > 50 µM | 0.829 µM | > 50 µM | 0.818 µM | 2.92 µM | 0.577 µM | 1.55 µM |
| O=c1cc(-c2ccccc2)[nH]n1-c1nc2ccccc2[nH]1 | 4.61 µM | 28.1 µM | 3.1 µM | 13.8 µM | 12.5 µM | > 100 µM | 6.18 µM | > 100 µM | 2.71 µM | > 100 µM | 4.66 µM | > 100 µM | 4.48 µM | > 100 µM | 3.94 µM | > 100 µM | 3.94 µM | 34.8 µM | 9.97 µM | > 100 µM |
| O=C(N/N=C/c1ccc([N+](=O)[O-])cc1)c1ccc2nc(-c3ccc(Cl)cc3)[nH]c2c1 | 1.34 µM | 3.22 µM | 3.51 µM | 14.9 µM | 4.43 µM | 37.8 µM | 3.37 µM | 15.4 µM | 2.73 µM | 9.13 µM | 2.78 µM | 18 µM | 3.44 µM | 10.8 µM | 0.499 µM | 8.44 µM | 2.03 µM | 7.07 µM | 3.99 µM | 21.4 µM |
